Source: patent US7138361B2, “Herbicidal heterocycles” (E. I. du Pont de Nemours and Company, priority 2000, dated 2006)

Legend:
Assay type in all cases: in vivo
[1] = test system: Surinam grass (Brachiaria decumbens); test: Test B postemergence
How it was run: (§1)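 Ratings on a 0 to 100 visual scale (100 complete control) compare treated plants with controls 13 to 15 days after application. Treatments were pre- or postemergence sprays of compound in non-phytotoxic solvent with surfactant.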

[2] = test system: barnyardgrass (Echinochloa crus-galli); test: Test B postemergence
How it was run: as §1

[3] = test system: blackgrass (Alopecurus myosuroides); test: Test B postemergence
How it was run: as §1

[4] = test system: cocklebur (Xanthium strumarium); test: Test B postemergence
How it was run: as §1

corn (Zea mays) [5] = test: Test B postemergence
How it was run: as §1

[6] = test system: crabgrass (Digitaria sanguinalis); test: Test B postemergence
How it was run: as §1

[7] = test system: giant foxtail (Setaria faberii); test: Test B postemergence
How it was run: as §1

[8] = test system: lambsquarters (Chenopodium album); test: Test B postemergence
How it was run: as §1

[9] = test system: morning glory (Ipomoea hederacea); test: Test B postemergence
How it was run: as §1

[10] = test system: pigweed (Amaranthus retroflexus); test: Test B postemergence
How it was run: as §1

[11] = test system: velvetleaf (Abutilon theophrasti); test: Test B postemergence
How it was run: as §1

[12] = test system: wheat (Triticum aestivum); test: Test B postemergence
How it was run: as §1

wild oat (Avena fatua) = test: Test B postemergence
How it was run: as §1

[13] = test system: Surinam grass (Brachiaria decumbens); test: Test B preemergence
How it was run: as §1

[14] = test system: barnyardgrass (Echinochloa crus-galli); test: Test B preemergence
How it was run: as §1

[15] = test system: cocklebur (Xanthium strumarium); test: Test B preemergence
How it was run: as §1

corn (Zea mays) [16] = test: Test B preemergence
How it was run: as §1

[17] = test system: crabgrass (Digitaria sanguinalis); test: Test B preemergence
How it was run: as §1

[18] = test system: giant foxtail (Setaria faberii); test: Test B preemergence
How it was run: as §1

[19] = test system: lambsquarters (Chenopodium album); test: Test B preemergence
How it was run: as §1

[20] = test system: morning glory (Ipomoea hederacea); test: Test B preemergence
How it was run: as §1

[21] = test system: pigweed (Amaranthus retroflexus); test: Test B preemergence
How it was run: as §1

rice (Oryza saliva) [22] = test: Test B preemergence
How it was run: as §1

[23] = test system: velvetleaf (Abutilon theophrasti); test: Test B preemergence
How it was run: as §1

[24] = test system: barnyardgrass (Echinochloa crus-galli); test: Test C flooded paddy test; conditions: for Barnyardgrass plant response rating: Flooded Paddy, scale 0 to 100, 0 no effect, 100 complete control; for Plant response rating, Barnyardgrass: flooded paddy test, scale 0 to 100 (0 no effect, 100 complete control)
How it was run: (§2)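 Greenhouse-maintained for 12 to 14 days after treatment, the paddy plants (2-leaf stage at application) were scored visually against controls. A score of 0 denotes no effect and a score of 100 denotes complete control.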

[25] = test system: duck salad (Heteranthera limosa); test: Test C flooded paddy test; conditions: for Ducksalad plant response rating: Flooded Paddy, scale 0 to 100, 0 no effect, 100 complete control; for Plant response rating, Ducksalad: flooded paddy test, scale 0 to 100 (0 no effect, 100 complete control)
How it was run: as §2

rice (Oryza saliva) [26] = test: Test C flooded paddy test; conditions: for Rice plant response rating: Flooded Paddy, scale 0 to 100, 0 no effect, 100 complete control; for Plant response rating, Rice: flooded paddy test, scale 0 to 100 (0 no effect, 100 complete control)
How it was run: as §2

[27] = test system: smallflower flatsedge (Cyperus difformis); test: Test C flooded paddy test; conditions: for Flatsedge plant response rating: Flooded Paddy, scale 0 to 100, 0 no effect, 100 complete control; for Plant response rating, Flatsedge: flooded paddy test, scale 0 to 100 (0 no effect, 100 complete control)
How it was run: as §2

[28] = Rate 125 g/ha, scale 0 to 100, 0 no effect, 100 complete control
[29] = Rate 500 g/ha, scale 0 to 100, 0 is no effect, 100 is complete control, 13 to 15 days
[30] = Preemergence, Rate 500 g/ha, scale 0 to 100, 0 no effect, 100 complete control
[31] = preemergence, Rate 125 g/ha, scale of 0 to 100 where 0 is no effect and 100 is complete control, 13 to 15 days

Cc1cccc(N2CCC(n3ccc(C(C)(C)C)n3)C2=O)c1 (centres unmarked) [Compound 112]
Plant response rating, Surinam grass [1, 28]: 0 | Plant response rating, Surinam grass [1, 29]: 100 | Plant response rating, Barnyardgrass [2, 28]: 0 | Plant response rating, Barnyardgrass [2, 29]: 20 | Plant response rating, Blackgrass [3, 28]: 0 | Plant response rating, Blackgrass [3, 29]: 0 | Plant response rating, Cocklebur [4, 28]: 0 | Plant response rating, Cocklebur [4, 29]: 0 | Plant response rating, Corn (corn (Zea mays) [5]; [28]): 0 | Plant response rating, Corn (corn (Zea mays) [5]; [29]): 0 | Plant response rating, Crabgrass [6, 28]: 30 | Plant response rating, Crabgrass [6, 29]: 30 | Plant response rating, Foxtail, Giant [7, 28]: 0 | Plant response rating, Foxtail, Giant [7, 29]: 0 | Plant response rating, Lambsquarters [8, 28]: 30 | Plant response rating, Lambsquarters [8, 29]: 30 | Plant response rating, Morningglory [9, 28]: 20 | Plant response rating, Morningglory [9, 29]: 50 | Plant response rating, Pigweed [10, 28]: 60 | Plant response rating, Pigweed [10, 29]: 80 | Plant response rating, Velvetleaf [11, 28]: 0 | Plant response rating, Velvetleaf [11, 29]: 0 | Plant response rating, Wheat [12, 28]: 40 | Plant response rating, Wheat [12, 29]: 40 | Plant response rating, Wild Oat (wild oat (Avena fatua); [28]): 30 | Plant response rating, Wild Oat (wild oat (Avena fatua); [29]): 60 | Plant response rating, Surinam grass [13, 30]: 30 | Plant response rating, Surinam grass [13, 31]: 10 | Plant response rating, Barnyardgrass [14, 30]: 100 | Plant response rating, Barnyardgrass [14, 31]: 90 | Plant response rating, Cocklebur [15, 30]: 0 | Plant response rating, Cocklebur [15, 31]: 0 | Plant response rating, Corn (corn (Zea mays) [16]; [30]): 30 | Plant response rating, Corn (corn (Zea mays) [16]; [31]): 0 | Plant response rating, Crabgrass [17, 30]: 100 | Plant response rating, Crabgrass [17, 31]: 100 | Plant response rating, Foxtail, Giant [18, 30]: 100 | Plant response rating, Foxtail, Giant [18, 31]: 100 | Plant response rating, Lambsquarters [19, 30]: 100 | Plant response rating, Lambsquarters [19, 31]: 100 | Plant response rating, Morningglory [20, 30]: 30 | Plant response rating, Morningglory [20, 31]: 30 | Plant response rating, Pigweed [21, 30]: 100 | Plant response rating, Pigweed [21, 31]: 100 | Plant response rating, Rice (rice (Oryza saliva) [22]; [30]): 100 | Plant response rating, Rice (rice (Oryza saliva) [22]; [31]): 0 | Plant response rating, Velvetleaf [23, 30]: 0 | Plant response rating, Velvetleaf [23, 31]: 0 | Barnyardgrass plant response rating ([24]; Rate 250 g/ha): 20 | Barnyardgrass plant response rating ([24]; Rate 500 g/ha): 60 | Plant response rating, Barnyardgrass ([24]; Rate 62 g/ha): 0 | Plant response rating, Barnyardgrass ([24]; Rate 125 g/ha): 0 | Ducksalad plant response rating ([25]; Rate 250 g/ha): 20 | Ducksalad plant response rating ([25]; Rate 500 g/ha): 30 | Plant response rating, Ducksalad ([25]; Rate 62 g/ha): 0 | Plant response rating, Ducksalad ([25]; Rate 125 g/ha): 0 | Rice plant response rating (rice (Oryza saliva) [26]; Rate 250 g/ha): 20 | Rice plant response rating (rice (Oryza saliva) [26]; Rate 500 g/ha): 70 | Plant response rating, Rice (rice (Oryza saliva) [26]; Rate 62 g/ha): 0 | Plant response rating, Rice (rice (Oryza saliva) [26]; Rate 125 g/ha): 0 | Flatsedge plant response rating ([27]; Rate 250 g/ha): 100 | Flatsedge plant response rating ([27]; Rate 500 g/ha): 100 | Plant response rating, Flatsedge ([27]; Rate 62 g/ha): 20 | Plant response rating, Flatsedge ([27]; Rate 125 g/ha): 50

CCCCC(CCCC)c1ccn(C2SCN(c3cccc(OC(F)(F)F)c3)C2=O)n1 (centres unmarked) [Compound 115]
Plant response rating, Surinam grass [1, 28]: 20 | Plant response rating, Surinam grass [1, 29]: 100 | Plant response rating, Barnyardgrass [2, 28]: 0 | Plant response rating, Barnyardgrass [2, 29]: 0 | Plant response rating, Blackgrass [3, 28]: 0 | Plant response rating, Blackgrass [3, 29]: 0 | Plant response rating, Cocklebur [4, 28]: 20 | Plant response rating, Cocklebur [4, 29]: 70 | Plant response rating, Corn (corn (Zea mays) [5]; [28]): 20 | Plant response rating, Corn (corn (Zea mays) [5]; [29]): 20 | Plant response rating, Crabgrass [6, 28]: 20 | Plant response rating, Crabgrass [6, 29]: 30 | Plant response rating, Foxtail, Giant [7, 28]: 0 | Plant response rating, Foxtail, Giant [7, 29]: 0 | Plant response rating, Lambsquarters [8, 28]: 0 | Plant response rating, Lambsquarters [8, 29]: 0 | Plant response rating, Morningglory [9, 28]: 0 | Plant response rating, Morningglory [9, 29]: 0 | Plant response rating, Pigweed [10, 28]: 50 | Plant response rating, Pigweed [10, 29]: 60 | Plant response rating, Velvetleaf [11, 28]: 0 | Plant response rating, Velvetleaf [11, 29]: 0 | Plant response rating, Wheat [12, 28]: 40 | Plant response rating, Wheat [12, 29]: 50 | Plant response rating, Wild Oat (wild oat (Avena fatua); [28]): 30 | Plant response rating, Wild Oat (wild oat (Avena fatua); [29]): 60 | Plant response rating, Surinam grass [13, 30]: 0 | Plant response rating, Surinam grass [13, 31]: 0 | Plant response rating, Barnyardgrass [14, 30]: 0 | Plant response rating, Barnyardgrass [14, 31]: 0 | Plant response rating, Cocklebur [15, 30]: 0 | Plant response rating, Cocklebur [15, 31]: 0 | Plant response rating, Corn (corn (Zea mays) [16]; [30]): 0 | Plant response rating, Corn (corn (Zea mays) [16]; [31]): 0 | Plant response rating, Crabgrass [17, 30]: 0 | Plant response rating, Crabgrass [17, 31]: 0 | Plant response rating, Foxtail, Giant [18, 30]: 0 | Plant response rating, Foxtail, Giant [18, 31]: 0 | Plant response rating, Lambsquarters [19, 30]: 0 | Plant response rating, Lambsquarters [19, 31]: 0 | Plant response rating, Morningglory [20, 30]: 0 | Plant response rating, Morningglory [20, 31]: 0 | Plant response rating, Pigweed [21, 30]: 0 | Plant response rating, Pigweed [21, 31]: 0 | Plant response rating, Rice (rice (Oryza saliva) [22]; [30]): 0 | Plant response rating, Rice (rice (Oryza saliva) [22]; [31]): 0 | Plant response rating, Velvetleaf [23, 30]: 0 | Plant response rating, Velvetleaf [23, 31]: 0 | Barnyardgrass plant response rating ([24]; Rate 250 g/ha): 0 | Barnyardgrass plant response rating ([24]; Rate 500 g/ha): 0 | Plant response rating, Barnyardgrass ([24]; Rate 62 g/ha): 0 | Plant response rating, Barnyardgrass ([24]; Rate 125 g/ha): 0 | Ducksalad plant response rating ([25]; Rate 250 g/ha): 0 | Ducksalad plant response rating ([25]; Rate 500 g/ha): 0 | Plant response rating, Ducksalad ([25]; Rate 62 g/ha): 0 | Plant response rating, Ducksalad ([25]; Rate 125 g/ha): 0 | Rice plant response rating (rice (Oryza saliva) [26]; Rate 250 g/ha): 0 | Rice plant response rating (rice (Oryza saliva) [26]; Rate 500 g/ha): 0 | Plant response rating, Rice (rice (Oryza saliva) [26]; Rate 62 g/ha): 0 | Plant response rating, Rice (rice (Oryza saliva) [26]; Rate 125 g/ha): 0 | Flatsedge plant response rating ([27]; Rate 250 g/ha): 0 | Flatsedge plant response rating ([27]; Rate 500 g/ha): 0 | Plant response rating, Flatsedge ([27]; Rate 62 g/ha): 0 | Plant response rating, Flatsedge ([27]; Rate 125 g/ha): 0
